#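 GI50 is the concentration that inhibits growth by half. Definition used: TGI = concentration required for complete inhibition of growth.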
# Tests used:
# Assay in all cases: inhibition of tumour cell growth, NCI panel, 384-well format
# MALME-3M melanoma = test system: MALME-3M melanoma
# TK-10 renal = test system: TK-10 renal
# CAKI-1 renal = test system: CAKI-1 renal
# BT-549 breast = test system: BT-549 breast
# 786-0 renal = test system: 786-0 renal
# M14 melanoma = test system: M14 melanoma
# NCI-H522 lung = test system: NCI-H522 lung
# SF-295 CNS = test system: SF-295 CNS
# NCI-H23 lung = test system: NCI-H23 lung
# HT29 colon = test system: HT29 colon
# MDA-MB-468 breast = test system: MDA-MB-468 breast
# RPMI-8226 leukemia = test system: RPMI-8226 leukemia
# A498 renal = test system: A498 renal
# DU-145 prostate = test system: DU-145 prostate
# U251 glioblastoma = test system: U251 glioblastoma
# HOP-62 NSCLC = test system: HOP-62 NSCLC
# ACHN renal = test system: ACHN renal
# SR leukemia = test system: SR leukemia
# UACC-257 melanoma = test system: UACC-257 melanoma
# T-47D breast = test system: T-47D breast
# CCRF-CEM leukemia = test system: CCRF-CEM leukemia
# OVCAR-5 ovarian = test system: OVCAR-5 ovarian
# NCI/ADR-RES ovarian = test system: NCI/ADR-RES ovarian
# SF-539 CNS = test system: SF-539 CNS
# COLO 205 colon = test system: COLO 205 colon
# UO-31 renal = test system: UO-31 renal
# K-562 leukemia = test system: K-562 leukemia
# MOLT-4 leukemia = test system: MOLT-4 leukemia
# RXF 393 renal = test system: RXF 393 renal
# PC-3 prostate = test system: PC-3 prostate
# SW-620 colon = test system: SW-620 colon
# OVCAR-4 ovarian = test system: OVCAR-4 ovarian
# A549 NSCLC = test system: A549 NSCLC
# HOP-92 NSCLC = test system: HOP-92 NSCLC
# OVCAR-3 ovarian = test system: OVCAR-3 ovarian
# SNB-75 CNS = test system: SNB-75 CNS
# MDA-MB-231 breast = test system: MDA-MB-231 breast
# HCT-15 colon = test system: HCT-15 colon
# SN12C renal = test system: SN12C renal
# HL-60(TB) leukemia = test system: HL-60(TB) leukemia
# MDA-MB-435 melanoma = test system: MDA-MB-435 melanoma
# NCI-H322M lung = test system: NCI-H322M lung
# HS 578T breast = test system: HS 578T breast
# NCI-H226 lung = test system: NCI-H226 lung
# HCT-116 colon = test system: HCT-116 colon
# IGROV1 ovarian = test system: IGROV1 ovarian
# MCF7 breast = test system: MCF7 breast
# SK-MEL-2 melanoma = test system: SK-MEL-2 melanoma
# LOX IMVI melanoma = test system: LOX IMVI melanoma
# SK-MEL-28 melanoma = test system: SK-MEL-28 melanoma
# SK-MEL-5 melanoma = test system: SK-MEL-5 melanoma
# SF-268 CNS = test system: SF-268 CNS
# SNB-19 CNS = test system: SNB-19 CNS
# KM12 colon = test system: KM12 colon
# NCI-H460 NSCLC = test system: NCI-H460 NSCLC
# EKVX NSCLC = test system: EKVX NSCLC
# SK-OV-3 ovarian = test system: SK-OV-3 ovarian
# UACC-62 melanoma = test system: UACC-62 melanoma
smiles,measurement,setting,value
NC(=O)c1ccc2nc(-c3ccc(Oc4ccc(Cl)cc4)cc3)[nH]c2c1,GI50,MALME-3M melanoma,17.1 µM
same,TGI,MALME-3M melanoma,46.2 µM
same,GI50,TK-10 renal,23.3 µM
same,TGI,TK-10 renal,> 100 µM
same,GI50,CAKI-1 renal,25.1 µM
same,TGI,CAKI-1 renal,> 100 µM
same,GI50,BT-549 breast,13.6 µM
same,TGI,BT-549 breast,30.7 µM
same,GI50,786-0 renal,15 µM
same,TGI,786-0 renal,37.1 µM
same,GI50,M14 melanoma,20.2 µM
same,TGI,M14 melanoma,50.3 µM
same,GI50,NCI-H522 lung,14.9 µM
same,TGI,NCI-H522 lung,46.2 µM
same,GI50,SF-295 CNS,13.5 µM
same,TGI,SF-295 CNS,30.8 µM
same,GI50,NCI-H23 lung,20.1 µM
same,TGI,NCI-H23 lung,76 µM
same,GI50,HT29 colon,10.5 µM
same,TGI,HT29 colon,24.1 µM
same,GI50,MDA-MB-468 breast,13.7 µM
same,TGI,MDA-MB-468 breast,34.5 µM
same,GI50,RPMI-8226 leukemia,15.2 µM
same,TGI,RPMI-8226 leukemia,29.1 µM
same,GI50,A498 renal,16.1 µM
same,TGI,A498 renal,31.6 µM
same,GI50,DU-145 prostate,15 µM
same,TGI,DU-145 prostate,36.9 µM
same,GI50,U251 glioblastoma,12.3 µM
same,TGI,U251 glioblastoma,26.7 µM
same,GI50,HOP-62 NSCLC,13.6 µM
same,TGI,HOP-62 NSCLC,33.9 µM
same,GI50,ACHN renal,17.4 µM
same,TGI,ACHN renal,45.1 µM
same,GI50,SR leukemia,3.77 µM
same,TGI,SR leukemia,14.1 µM
same,GI50,UACC-257 melanoma,16.2 µM
same,TGI,UACC-257 melanoma,35.1 µM
same,GI50,T-47D breast,11.6 µM
same,TGI,T-47D breast,29.5 µM
same,GI50,CCRF-CEM leukemia,15.3 µM
same,TGI,CCRF-CEM leukemia,29.7 µM
same,GI50,OVCAR-5 ovarian,23.6 µM
same,TGI,OVCAR-5 ovarian,> 100 µM
same,GI50,NCI/ADR-RES ovarian,23.5 µM
same,TGI,NCI/ADR-RES ovarian,74.7 µM
same,GI50,SF-539 CNS,17.5 µM
same,TGI,SF-539 CNS,45.1 µM
same,GI50,COLO 205 colon,33.8 µM
same,TGI,COLO 205 colon,97.8 µM
same,GI50,UO-31 renal,16.9 µM
same,TGI,UO-31 renal,44.5 µM
same,GI50,K-562 leukemia,7.87 µM
same,TGI,K-562 leukemia,23.4 µM
same,GI50,MOLT-4 leukemia,12.9 µM
same,TGI,MOLT-4 leukemia,25.8 µM
same,GI50,RXF 393 renal,10.6 µM
same,TGI,RXF 393 renal,27.7 µM
same,GI50,PC-3 prostate,16 µM
same,TGI,PC-3 prostate,34.6 µM
same,GI50,SW-620 colon,15.4 µM
same,TGI,SW-620 colon,63.2 µM
same,GI50,OVCAR-4 ovarian,11.4 µM
same,TGI,OVCAR-4 ovarian,37.1 µM
same,GI50,A549 NSCLC,20.2 µM
same,TGI,A549 NSCLC,> 100 µM
same,GI50,HOP-92 NSCLC,20 µM
same,TGI,HOP-92 NSCLC,80.3 µM
same,GI50,OVCAR-3 ovarian,12.1 µM
same,TGI,OVCAR-3 ovarian,25.4 µM
same,GI50,SNB-75 CNS,22.3 µM
same,TGI,SNB-75 CNS,58.1 µM
same,GI50,MDA-MB-231 breast,21.5 µM
same,TGI,MDA-MB-231 breast,46.1 µM
same,GI50,HCT-15 colon,16.9 µM
same,TGI,HCT-15 colon,34.4 µM
same,GI50,SN12C renal,17.4 µM
same,TGI,SN12C renal,45.8 µM
same,GI50,HL-60(TB) leukemia,15 µM
same,TGI,HL-60(TB) leukemia,28.4 µM
same,GI50,MDA-MB-435 melanoma,23.2 µM
same,TGI,MDA-MB-435 melanoma,68 µM
same,GI50,NCI-H322M lung,15.3 µM
same,TGI,NCI-H322M lung,38.6 µM
same,GI50,HS 578T breast,13.4 µM
same,TGI,HS 578T breast,30.7 µM
same,GI50,NCI-H226 lung,22 µM
same,TGI,NCI-H226 lung,78.1 µM
same,GI50,HCT-116 colon,16.8 µM
same,TGI,HCT-116 colon,40.8 µM
same,GI50,IGROV1 ovarian,17.1 µM
same,TGI,IGROV1 ovarian,53.2 µM
same,GI50,MCF7 breast,12.1 µM
same,TGI,MCF7 breast,27.1 µM
same,GI50,SK-MEL-2 melanoma,33.7 µM
same,TGI,SK-MEL-2 melanoma,53.6 µM
same,GI50,LOX IMVI melanoma,26.2 µM
same,TGI,LOX IMVI melanoma,60.7 µM
same,GI50,SK-MEL-28 melanoma,22.2 µM
same,TGI,SK-MEL-28 melanoma,80 µM
same,GI50,SK-MEL-5 melanoma,13.6 µM
same,TGI,SK-MEL-5 melanoma,28.1 µM
same,GI50,SF-268 CNS,15.9 µM
same,TGI,SF-268 CNS,56.2 µM
same,GI50,SNB-19 CNS,14.9 µM
same,TGI,SNB-19 CNS,35.4 µM
same,GI50,KM12 colon,14.5 µM
same,TGI,KM12 colon,31.3 µM
same,GI50,NCI-H460 NSCLC,14.8 µM
same,TGI,NCI-H460 NSCLC,29.1 µM
same,GI50,EKVX NSCLC,21.7 µM
same,TGI,EKVX NSCLC,68.4 µM
same,GI50,SK-OV-3 ovarian,24.8 µM
same,TGI,SK-OV-3 ovarian,58.7 µM
same,GI50,UACC-62 melanoma,25.2 µM
same,TGI,UACC-62 melanoma,75.1 µM

# Reference: PubChem BioAssay (NCI)
